Data set [1] is described as follows: Non-GLP safety assessment of retinal function and structure. It counts as in vivo, rats. Here is the method:
(§1) A non-GLP safety assessment for changes in retinal function and structure were evaluated in rats. […] In addition, toxicity of (S)-3-amino-4-(difluoromethylenyl)cyclopent-1-ene-1-carboxylic acid was assessed in non-GLP single-dose and repeat dose toxicity studies in rats and dogs. […] (S)-3-amino-4-(difluoromethylenyl)cyclopent-1-ene-1-carboxylic acid was not genotoxic in the Ames assay. The Ames assay is a well-known method that uses several strains of the bacterium Salmonella typhimurium to test whether a given chemical can cause mutations in the DNA of the test organism. No CNS or cardiovascular safety liabilities were identified in an Irwin study in mice. The Irwin observation test is commonly used to evaluate the effects of a new substance on behavior and physiological function. Roux et al., Curr Protoc Pharmacol. 2005 Jan. 1; Chapter 10:Unit 10.

Data set [2] is described as follows: Plasma protein binding, dog. Type of data set: in vitro ADME. The note with it: 37° C., one range given for rat, dog and human, read-out: bound to plasma proteins. As for the experimental part: (§2) (S)-3-amino-4-(difluoromethylenyl)cyclopent-1-ene-1-carboxylic acid was minimally bound (4 to 20%) to proteins in rat, dog, and human plasma at 37° C.
The nature of data set [3]: Plasma protein binding, rat. It counts as in vitro ADME. The note with it: 37° C., one range given for rat, dog and human, read-out: bound to plasma proteins. As for the experimental part: as §2
The nature of data set [4]: Acute behavioral neurotoxicity in naive adult mice. The note with it: in vivo, oral. Here is the method: (§3) In adult mice, an acute no-observed adverse-effect level (NOAEL) of 6 mg/kg by mouth was determined by evaluating behavioral neurotoxicity in naive animals. […] Based on these findings, it is clear that the inhibition of GABA-AT by (S)-3-amino-4-(difluoromethylenyl)cyclopent-1-ene-1-carboxylic acid is not necessarily associated with vigabatrin-like retinal toxicity.

Data set [5] is described as follows: Genetic toxicity in vitro.
Data set [6] in a line: Pharmacokinetics after oral administration in rat. The note with it: in vivo.
A short description of data set [7]: Clearance in rat hepatocytes. Type of data set: in vitro ADME. The note with it: read-out: intrinsic clearance (CIint).
Data set [8] in a line: 45-day oral tolerability and electroretinogram study, head-to-head with vigabatrin. It counts as in vivo, mice. Here is the method:
as §3

The nature of data set [9]: Clearance in dog hepatocytes. It counts as in vitro ADME. The note with it: read-out: intrinsic clearance (CIint).
Data set [10] can be described thus: Non-GLP 10-day repeat dose toxicity study in dogs. Type of data set: in vivo. As for the experimental part:
as §1

The nature of data set [11]: Pharmacokinetics after oral administration in dog. Type of data set: in vivo.
Another data set has as its system Salmonella typhimurium. Type of data set: cell-based. Here is the method: as §1
A further data set has as its target hERG channel (Homo sapiens, UniProt Q12809). Nature of the data set: hERG channel activity in vitro. (In general: Block of hERG is tested as a sign of cardiac risk.)
Data set [12] can be described thus: Plasma protein binding, human. Type of data set: in vitro ADME. The note with it: 37° C., one range given for rat, dog and human, read-out: bound to plasma proteins. Here is the method:
as §2

Data set [13] can be described thus: Clearance in human hepatocytes. It counts as in vitro ADME. The note with it: read-out: intrinsic clearance (CIint).
Data set [14] can be described thus: Non-GLP 10-day repeat dose toxicity study in rats. Particulars: for human dose converted from tolerated rat dose: Reagan-Shaw conversion. It counts as in vivo. Here is the method:
as §1

Read-outs that look alike come from different tables or passages of the source.

Sequence of hERG channel (Q12809 whole entry): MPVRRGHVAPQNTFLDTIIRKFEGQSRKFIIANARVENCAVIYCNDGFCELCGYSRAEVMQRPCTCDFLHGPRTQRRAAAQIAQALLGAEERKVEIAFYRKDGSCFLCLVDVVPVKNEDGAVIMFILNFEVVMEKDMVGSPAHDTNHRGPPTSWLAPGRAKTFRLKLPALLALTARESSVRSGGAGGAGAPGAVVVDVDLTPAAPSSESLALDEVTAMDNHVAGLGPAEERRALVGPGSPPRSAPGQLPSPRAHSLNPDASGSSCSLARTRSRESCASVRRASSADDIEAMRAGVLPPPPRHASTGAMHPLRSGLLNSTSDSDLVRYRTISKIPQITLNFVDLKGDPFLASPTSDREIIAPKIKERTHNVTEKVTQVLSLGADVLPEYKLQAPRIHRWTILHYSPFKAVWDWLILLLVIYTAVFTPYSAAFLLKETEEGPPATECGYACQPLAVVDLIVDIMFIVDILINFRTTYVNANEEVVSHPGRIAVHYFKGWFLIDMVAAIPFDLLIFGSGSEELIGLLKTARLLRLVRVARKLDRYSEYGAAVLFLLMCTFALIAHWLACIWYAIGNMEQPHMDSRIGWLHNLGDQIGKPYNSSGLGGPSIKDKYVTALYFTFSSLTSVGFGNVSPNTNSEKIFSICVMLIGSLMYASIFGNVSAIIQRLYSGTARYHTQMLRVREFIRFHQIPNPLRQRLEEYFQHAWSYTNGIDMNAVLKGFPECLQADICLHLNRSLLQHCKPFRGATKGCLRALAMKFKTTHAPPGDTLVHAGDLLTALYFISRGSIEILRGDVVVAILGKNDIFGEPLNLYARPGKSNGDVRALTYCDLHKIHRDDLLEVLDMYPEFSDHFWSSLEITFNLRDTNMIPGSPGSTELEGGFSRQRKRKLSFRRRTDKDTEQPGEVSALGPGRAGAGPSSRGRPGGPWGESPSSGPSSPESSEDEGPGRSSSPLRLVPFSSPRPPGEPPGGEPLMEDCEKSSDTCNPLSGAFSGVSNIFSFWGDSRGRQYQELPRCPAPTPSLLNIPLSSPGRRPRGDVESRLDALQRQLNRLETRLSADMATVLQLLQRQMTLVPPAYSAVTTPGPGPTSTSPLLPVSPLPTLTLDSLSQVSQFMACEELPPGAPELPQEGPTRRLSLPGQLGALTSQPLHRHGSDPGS

Usually NOAEL stands for the highest tested level that showed no adverse finding. Broadly, the half-life is how long it takes for the measured level to halve. Take `N[C@H]1C=C(C(=O)O)CC1=C(F)F` [(S)-3-amino-4-(difluoromethylenyl)cyclopent-1-ene-1-carboxylic acid]: the “human dose converted from tolerated rat dose” value is reported as 0.48 mg/kg/day in data set [1] (from 1 mg/kg/day rat (so in the source), Reagan-Shaw conversion); 1.62 mg/kg in [14] (from 10 mg/kg rat); 2.4 mg/kg in data set [14] (from 15 mg/kg rat). In addition, the “well tolerated dose for all assessed ocular endpoints” value in data set [1] (rats, 45 days, fundoscopy, ERG, OCT and histological assessments, initial results) is recorded as “up to 3 mg/kg/day”. Also, the fraction unbound in [2], in data set [3] and in [12] was 0.8 to 0.96 in each case. The no-observed-adverse-effect level (NOAEL) in [4] (from 6 mg/kg mouse, Reagan-Shaw conversion, read-out: human dose converted from mouse NOAEL) was found to be 0.49 mg/kg; in [4] (mouse, adult mice, by mouth, behavioral neurotoxicity, read-out: acute no-observed adverse-effect level (NOAEL)), 6 mg/kg. Besides, the genetic toxicity entry in [5] is “No evidence of genetic toxicity”. Further, the half-life in data set [6] (read-out: elimination half-life (t½)) lay in the range of 75 to 90 min; in data set [11] (in vivo, dog, oral administration, read-out: elimination half-life (t½)), 75 to 90 min. For the same compound, the Tmax is 15 to 30 min in data set [6] (read-out: time of maximum concentration (Tmax)) and 15 to 30 min in data set [11] (in vivo, dog, oral administration, read-out: time of maximum concentration (Tmax)). Besides, the CLint scaled in data set [7] is 24.3 mL/min/kg; in data set [9] it was 8.97 mL/min/kg; in data set [13] it was 13.1 mL/min/kg. The tolerability entry in data set [8] (1 mg/kg/d by mouth for 45 days) is “well tolerated”. In addition, the “human dose converted from tolerated mouse dose” value in data set [8] (from 1 mg/kg/day mouse, Reagan-Shaw conversion) came out at 0.08 mg/kg/day. Further, in [10] (10-day dosing, male and female dogs), the “well tolerated dose, dogs” value was “up to 1.0 mg/kg”. The “human dose converted from tolerated dog dose” value in data set [10] (from 1 mg/kg dog, Reagan-Shaw conversion) turned out to be 1.54 mg/kg. The “exposure (AUC basis) in dogs compared with rats” value in data set [11] (equivalent oral doses) is listed as “higher exposure”. Moreover, in the data set with Salmonella typhimurium, the “genotoxicity in the Ames assay” value is recorded as “not genotoxic”. At hERG channel, the hERG channel activity entry is on record as “No evidence of genetic toxicity or hERG channel activity”. In addition, in [14] (10-day dosing, female rats), the “well tolerated dose, female rats” value is on record as at most 10 mg/kg. In data set [14] (10-day dosing, male rats), the “well tolerated dose, male rats” value was “up to 15 mg/kg”.

Consider `C=CC(N)CCC(=O)O` (stereo not shown) [vigabatrin, reference compound], for which, in data set [8] (mouse, in vivo), the “retinal B-wave amplitudes” value is “reductions in retinal B-wave amplitudes” and the weight entry was “marked reduction in weight”.

Values taken from patent publication US20240009160A1, “USE OF (S)-3-AMINO-4-(DIFLUOROMETHYLENYL)CYCLOPENT-1-ENE-1-CARBOXYLIC ACID IN THE TREATMENT OF CANCER” (Ovid Therapeutics, Inc., priority 2022, published 2024).
